For 15 compounds, inhibition results are on record in ChEMBL document CHEMBL4425190, “Rat intestinal sucrase inhibited by minor constituents from the leaves and twigs of Archidendron clypearia (Jack.) Nielsen” (Bioorg Med Chem Lett, 2016).

Assay [1] addresses Sucrase-isomaltase, intestinal (Rattus norvegicus) (UniProt P23739). As to the kind of experiment: Inhibition of rat small intestinal sucrase using sucrose as substrate assessed as amount of liberated glucose at 1 mM after 30 mins by glucose oxidase method.
Assay [2] has the same target. Conditions: 0.02 mM.
Description: Inhibition of rat small intestinal sucrase using sucrose as substrate assessed as amount of liberated glucose at 0.02 mM after 30 mins by glucose oxidase method

Sucrase-isomaltase, intestinal (Rattus norvegicus), sequence (P23739 1-1013 limits assumed): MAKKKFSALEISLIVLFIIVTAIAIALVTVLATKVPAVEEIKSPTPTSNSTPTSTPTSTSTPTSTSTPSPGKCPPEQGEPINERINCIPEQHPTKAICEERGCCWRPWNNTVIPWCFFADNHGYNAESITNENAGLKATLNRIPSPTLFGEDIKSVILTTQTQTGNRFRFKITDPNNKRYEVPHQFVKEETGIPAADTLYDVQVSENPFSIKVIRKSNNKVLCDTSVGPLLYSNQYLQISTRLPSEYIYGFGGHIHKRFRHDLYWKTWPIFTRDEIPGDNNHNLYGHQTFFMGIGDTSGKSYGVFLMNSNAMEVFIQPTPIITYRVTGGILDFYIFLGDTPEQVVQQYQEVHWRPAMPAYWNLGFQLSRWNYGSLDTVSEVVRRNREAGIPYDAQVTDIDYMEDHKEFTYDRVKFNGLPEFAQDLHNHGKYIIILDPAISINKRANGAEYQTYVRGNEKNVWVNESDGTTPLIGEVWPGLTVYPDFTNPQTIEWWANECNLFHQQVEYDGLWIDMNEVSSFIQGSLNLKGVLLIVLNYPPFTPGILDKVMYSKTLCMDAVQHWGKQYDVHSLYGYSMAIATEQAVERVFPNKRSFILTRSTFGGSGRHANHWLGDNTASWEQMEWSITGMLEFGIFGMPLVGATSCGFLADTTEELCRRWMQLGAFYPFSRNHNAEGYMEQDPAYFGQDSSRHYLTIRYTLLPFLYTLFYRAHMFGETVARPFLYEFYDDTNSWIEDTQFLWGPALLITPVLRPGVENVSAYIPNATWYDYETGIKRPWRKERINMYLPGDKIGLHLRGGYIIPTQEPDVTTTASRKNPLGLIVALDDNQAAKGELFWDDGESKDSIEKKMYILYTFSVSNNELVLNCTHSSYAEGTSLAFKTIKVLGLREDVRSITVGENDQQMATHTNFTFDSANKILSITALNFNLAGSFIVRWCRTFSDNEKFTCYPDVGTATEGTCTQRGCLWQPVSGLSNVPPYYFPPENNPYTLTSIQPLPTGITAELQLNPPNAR
Sucrase-isomaltase, intestinal (Rattus norvegicus), sequence (P23739 1014-1841 limits assumed): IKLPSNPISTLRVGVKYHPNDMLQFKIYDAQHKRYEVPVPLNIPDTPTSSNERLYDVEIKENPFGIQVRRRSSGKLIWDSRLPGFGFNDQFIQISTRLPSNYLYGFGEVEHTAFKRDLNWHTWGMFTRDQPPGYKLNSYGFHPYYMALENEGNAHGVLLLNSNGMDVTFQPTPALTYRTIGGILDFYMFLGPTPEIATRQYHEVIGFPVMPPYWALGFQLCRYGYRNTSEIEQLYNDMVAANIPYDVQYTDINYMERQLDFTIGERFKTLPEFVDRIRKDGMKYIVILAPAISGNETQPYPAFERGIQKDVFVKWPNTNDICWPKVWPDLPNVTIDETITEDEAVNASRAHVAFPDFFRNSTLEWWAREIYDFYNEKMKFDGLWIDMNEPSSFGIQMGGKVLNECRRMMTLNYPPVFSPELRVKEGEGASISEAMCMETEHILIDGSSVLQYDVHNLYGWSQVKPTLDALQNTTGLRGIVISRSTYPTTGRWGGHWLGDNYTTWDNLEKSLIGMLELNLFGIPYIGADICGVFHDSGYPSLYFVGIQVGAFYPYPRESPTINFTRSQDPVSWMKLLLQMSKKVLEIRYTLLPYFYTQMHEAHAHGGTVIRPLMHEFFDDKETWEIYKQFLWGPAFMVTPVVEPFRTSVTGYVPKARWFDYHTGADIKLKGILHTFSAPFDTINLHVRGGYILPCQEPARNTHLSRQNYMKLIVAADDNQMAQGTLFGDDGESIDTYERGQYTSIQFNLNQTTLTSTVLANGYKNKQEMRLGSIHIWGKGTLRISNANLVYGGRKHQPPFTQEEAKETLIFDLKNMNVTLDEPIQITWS

Consider `COc1cc(/C=C/CO)ccc1O[C@@H]1O[C@H](CO)[C@@H](O)[C@H](O)[C@H]1O`, for which, in assay [1], the inhibition was determined as 11%.

For the compound `N#C[C@H](O[C@@H]1O[C@H](CO[C@@H]2O[C@H](CO)[C@@H](O)[C@H](O)[C@H]2O)[C@@H](O)[C@H](O)[C@H]1O)c1ccccc1`, in assay [1], the inhibition stood at 50.4%.

Regarding `CC1=CC(=O)CC(C)(C)[C@@]1(O)/C=C/[C@@H](C)O[C@@H]1O[C@H](CO[C@@H]2OC[C@](O)(CO)[C@H]2O)[C@@H](O)[C@H](O)[C@H]1O`, in assay [1], the inhibition worked out at 35.1%.

Regarding `CC1=CC(=O)CC(C)(C)[C@@]1(O)/C=C/[C@@H](C)O[C@@H]1O[C@H](CO)[C@@H](O)[C@H](O)[C@H]1O`, the inhibition in assay [1] came to 23.7%.

Consider `COc1cc([C@H]2c3c(cc(OC)c(O)c3OC)C[C@H](CO)[C@H]2CO)cc(OC)c1O`, for which, in assay [1], the inhibition stood at 57.5%.

With `C[C@](O)(CC(=O)O)CC(=O)O[C@@H]1[C@@H](O)[C@H](OCc2ccccc2)O[C@H](CO)[C@H]1O`, the inhibition in assay [1] was found to be 88.4%.

In the case of `COc1cc([C@@H]2c3c(cc(OC)c(O)c3OC)C[C@H](CO)[C@H]2CO[C@@H]2O[C@H](CO)[C@@H](O)[C@H](O)[C@H]2O)cc(OC)c1O`, the inhibition in assay [1] stood at 66.3%.

Turning to `COc1cc([C@H]2c3c(cc(OC)c(O)c3OC)C[C@H](CO)[C@H]2CO[C@@H]2O[C@H](CO)[C@@H](O)[C@H](O)[C@H]2O)cc(OC)c1O`, the inhibition in assay [1] came out at 10.8%.

Take `C[C@H]1O[C@H](O[C@H]2[C@H](O)[C@@H](O)[C@@H](O[C@H]3[C@H](O)[C@@H](O)C(O)O[C@@H]3CO)O[C@@H]2CO)[C@H](O)[C@@H](O)[C@@H]1N[C@H]1C=C(CO)[C@@H](O)[C@H](O)[C@H]1O` (stereo not given in full): the inhibition in assay [2] came to 89.5%.

For `COc1cc(/C=C/CO)cc(OC)c1O[C@H]1O[C@H](CO)[C@@H](O)[C@H](O)[C@H]1O`, in assay [1], the inhibition is 14.6%.

As for `CC1=CC(=O)CC(C)(C)C1/C=C/[C@@H](C)O[C@@H]1O[C@H](CO[C@@H]2OC[C@](O)(CO)[C@H]2O)[C@@H](O)[C@H](O)[C@H]1O` (stereo not given in full), in assay [1], the inhibition worked out at 13.6%.

With `CC(=O)OC[C@H]1O[C@@H](O[C@H](C)/C=C/[C@@]2(O)C(C)=CC(=O)CC2(C)C)[C@H](O)[C@@H](O)[C@@H]1O`, the inhibition in assay [1] came out at 29.8%.

For the compound `COc1cc(/C=C/CO)cc(O[C@@H]2O[C@H](CO)[C@@H](O)[C@H](O)[C@H]2O[C@@H]2OC[C@](O)(CO)[C@H]2O)c1OC`, in assay [1], the inhibition was 31.3%.

As for `COc1cc(C[C@H]2CO[C@H](c3cc(OC)c(O)c(OC)c3)[C@H]2CO[C@@H]2O[C@H](CO)[C@@H](O)[C@H](O)[C@H]2O)cc(OC)c1O`, in assay [1], the inhibition worked out at 81.6%.

With `COc1cc([C@H]2OC[C@H]3[C@@H]2CO[C@@H]3c2ccc(O)c(OC)c2)ccc1O`, in assay [1], the inhibition was 51.3%.
